# Reference: patent US20120015907A1, “Furopyridine compounds and uses thereof” (NOVARTIS AG, priority 2010, published 2012)
# Like-named read-outs stand apart in the source and are kept apart here.
# Biological target: T1, HCV polymerase (Hepatitis C virus genotype 1b, UniProt Q9WMX2)
# T1 construct: (His)6 (C)
# Assay: biochemical
# Conditions: polymerase assay of Biological Example 1
Compound,IC50 (read-out: NS5B polymerase IC50),IC50 (NS5B polymerase IC50 μM)
"CCOC(=O)C1(CCCN(c2nc3oc(-c4ccc(C)cc4)c(C(=O)NC)c3cc2C2CC2)S(C)(=O)=O)CCNCC1 [Example 29.999993, ethyl 4-(3-(N-(5-cyclopropyl-3-(methylcarbamoyl)-2-p-tolylfuro[2,3-b]pyridin-6-yl)methylsulfonamido)propyl) piperidine-4-carboxylate]",0.022 µM,–
"CCc1cc2c(C(=O)NC)c(-c3ccc(F)cc3)oc2nc1N(CCc1ccc(OC)c(OC)c1)S(C)(=O)=O [Example 22.2, 6-(N-(3,4-dimethoxyphenethyl)methylsulfonamido)-5-ethyl-2-(4-fluorophenyl)-N-methylfuro[2,3-b]pyridine-3-carboxamide]",0.281 µM,–
"CCc1cc2c(C(=O)NC)c(-c3ccc(F)cc3)oc2nc1N(CCOCCOC)S(C)(=O)=O [Example 21.8, 5-ethyl-2-(4-fluorophenyl)-6-(N-(2-(2-methoxyethoxy)ethyl)methylsulfonamido)-N-methylfuro[2,3-b]pyridine-3-carboxamide]",0.688 µM,–
"CNC(=O)c1c(-c2ccc(F)cc2)oc2nc(N(C)S(C)(=O)=O)c(I)cc12 [Example 2, 2-(4-Fluoro-phenyl)-5-iodo-6-(methanesulfonyl-methyl-amino)-furo[2,3-b]pyridine-3-carboxylic acid methylamide]",0.163 µM,–
"CNC(=O)c1c(-c2ccc(C)cc2)oc2nc(N(CCCCP(C)(=O)O)S(C)(=O)=O)c(I)cc12 [Example 23.9999, 4-(N-(5-iodo-3-(methylcarbamoyl)-2-p-tolylfuro[2,3-b]pyridin-6-yl)methylsulfonamido)butyl (methyl)phosphinic acid]",–,0.013 µM
"CNC(=O)c1c(-c2ccc(C)cc2)oc2nc(N(CCCC(C)(OC)C(=O)O)S(C)(=O)=O)c(C3CC3)cc12 (stereo not shown) [Example 29.9992, 5-(N-(5-cyclopropyl-3-(methylcarbamoyl)-2-p-tolylfuro[2,3-b]pyridin-6-yl)methylsulfonamido)-2-methoxy-2-methylpentanoic acid]",0.004 µM,–
"CCc1cc2c(C(=O)NC)c(-c3ccc(F)cc3)oc2nc1N(CCCO)S(C)(=O)=O [Example 23.2, 5-ethyl-2-(4-fluorophenyl)-6-(N-(3-hydroxypropyl)methylsulfonamido)-N-methylfuro[2,3-b]pyridine-3-carboxamide]",0.144 µM,–
"CNC(=O)c1c(-c2ccc(C)cc2)oc2nc(N(CCC[C@H](COC)C(=O)O)S(C)(=O)=O)c(C3CC3)cc12 [Example 47.7, (R)-5-(N-(5-Cyclopropyl-3-(methylcarbamoyl)-2-p-tolylfuro[2,3-b]pyridin-6-yl)methylsulfonamido)-2-(methoxymethyl)pentanoic acid]",0.002 µM,–
"CCOP(C)(=O)CCCCCN(c1nc2oc(-c3ccc(C)cc3)c(C(=O)NC)c2cc1C1CC1)S(C)(=O)=O (stereo not shown) [Example 23.99995, ethyl 5-(N-(5-cyclopropyl-3-(methylcarbamoyl)-2-p-tolylfuro[2,3-b]pyridin-6-yl)methylsulfonamido)pentyl (methyl)phosphinate]",–,0.009 µM
"CCc1cc2c(C(=O)NC)c(-c3ccc(F)cc3)oc2nc1N(C[C@@H](C)Cc1ccc(OC)nc1)S(C)(=O)=O [Example 21.6, (S)-5-ethyl-2-(4-fluorophenyl)-6-(N-(3-(6-methoxypyridin-3-yl)-2-methylpropyl)methylsulfonamido)-N-methylfuro[2,3-b]pyridine-3-carboxamide]",0.948 µM,–
"CCc1cc2c(C(=O)NC)c(-c3ccc(F)cc3)oc2nc1N(CCCCC(C)(C)O)S(C)(=O)=O [Example 22.97, 5-ethyl-2-(4-fluorophenyl)-6-(N-(5-hydroxy-5-methylhexyl)methylsulfonamido)-N-methylfuro[2,3-b]pyridine-3-carboxamide]",0.046 µM,–
"CCc1cc2c(C(=O)NC)c(-c3ccc(F)cc3)oc2nc1N(CCCN1CCCC1=O)S(C)(=O)=O [Example 22.996, 5-ethyl-2-(4-fluorophenyl)-N-methyl-6-(N-(3-(2-oxopyrrolidin-1-yl)propyl)methylsulfonamido)furo[2,3-b]pyridine-3-carboxamide]",0.059 µM,–
"CNC(=O)c1c(-c2ccc(C)cc2)oc2nc(N(CCCCC(C)(C)C(=O)O)S(C)(=O)=O)c(C3CC3)cc12 [Example 29.2, 6-(N-(5-cyclopropyl-3-(methylcarbamoyl)-2-p-tolylfuro[2,3-b]pyridin-6-yl)methylsulfonamido)-2,2-dimethylhexanoic acid]",0.001 µM,–
"C=CCc1cc2c(C(=O)NC)c(-c3ccc(F)cc3)oc2nc1N(C)S(C)(=O)=O [Example 4.2, 5-allyl-2-(4-fluorophenyl)-N-methyl-6-(N-methylmethylsulfonamido)furo[2,3-b]pyridine-3-carboxamide]",0.128 µM,–
"CCc1cc2c(C(=O)NC)c(-c3ccc(F)cc3)oc2nc1N(CCN1Cc2ccccc2S1(=O)=O)S(C)(=O)=O [Example 22.994, 6-{[2-(1,1-Dioxo-1,3-dihydrobenzo[d]isothiazol-2-yl)-ethyl]-methanesulfonyl-amino}-5-ethyl-2-(4-fluoro-phenyl)-furo[2,3-b]pyridine-3-carboxylic acid methylamide]",1.06 µM,–
"CCc1ccc(-c2oc3nc(N(CCCCCP(C)(=O)O)S(C)(=O)=O)c(I)cc3c2C(=O)NC)cc1 [Example 23.9997, 5-(N-(2-(4-ethylphenyl)-5-iodo-3-(methylcarbamoyl)furo[2,3-b]pyridin-6-yl)methylsulfonamido)pentyl (methyl)phosphinic acid]",–,0.012 µM
"CCc1cc2c(C(=O)NC)c(-c3ccc(F)cc3)oc2nc1N(CCc1cccc(OC)c1)S(C)(=O)=O [Example 21.9, 5-ethyl-2-(4-fluorophenyl)-6-(N-(3-methoxyphenethyl)methylsulfonamido)-N-methylfuro[2,3-b]pyridine-3-carboxamide]",0.772 µM,–
"CCCc1cc2c(C(=O)NC)c(-c3ccc(F)cc3)oc2nc1N(C)S(C)(=O)=O [Example 4.96, 2-(4-fluorophenyl)-N-methyl-6-(N-methylmethylsulfonamido)-5-propylfuro[2,3-b]pyridine-3-carboxamide]",0.078 µM,–
"CNC(=O)c1c(-c2ccc(C)cc2)oc2nc(N(CCCCC(C(=O)O)S(C)(=O)=O)S(C)(=O)=O)c(C3CC3)cc12 (stereo not shown) [Example 46, 6-(N-(5-cyclopropyl-3-(methylcarbamoyl)-2-(p-tolyl)furo[2,3-b]pyridin-6-yl)methylsulfonamido)-2-(methylsulfonyl)hexanoic acid]",0.003 µM,–
"C=C(CCCN(c1nc2oc(-c3ccc(C)cc3)c(C(=O)NC)c2cc1C1CC1)S(C)(=O)=O)C(=O)OC [Example 29.9997, methyl 5-(N-(5-cyclopropyl-3-(methylcarbamoyl)-2-p-tolylfuro[2,3-b]pyridin-6-yl)methylsulfonamido)-2-methylenepentanoate]",0.015 µM,–
"CCc1cc2c(C(=O)NC)c(-c3ccc(Oc4ccccc4)cc3)oc2nc1N(C)S(C)(=O)=O [Example 17, 5-ethyl-N-methyl-6-(N-methylmethylsulfonamido)-2-(4-phenoxyphenyl)furo[2,3-b]pyridine-3-carboxamide]",0.128 µM,–
"C=CCN(c1nc2oc(-c3ccc(C)cc3)c(C(=O)NC)c2cc1C1CC1)S(C)(=O)=O [Example 29.97, 6-(N-allylmethylsulfonamido)-5-cyclopropyl-N-methyl-2-p-tolylfuro[2,3-b]pyridine-3-carboxamide]",0.003 µM,–
